According to paper PMC3349722, “Prediction of Drug-Target Interactions and Drug Repositioning via Network-Based Inference” (PLoS Computational Biology, 2012):
Structures can show the parent of a compound that is named as a salt. Where two headings read alike, the source gives them in different places.

Columns and labels:
[1] = biological target: ERβ (Homo sapiens, UniProt Q92731); test: Yeast two-hybrid system-based assay (ERβ LBD/SRC1, α-galactosidase), agonist and antagonist mode; type: cell-based; details: for Inhibitive Ratio% (10 μM), ERβ: antagonist assay with 1 nM E2; for IC50: read-out: IC50 on ERβ (antagonistic activity)
Sequence of ERβ (Q92731 248-510): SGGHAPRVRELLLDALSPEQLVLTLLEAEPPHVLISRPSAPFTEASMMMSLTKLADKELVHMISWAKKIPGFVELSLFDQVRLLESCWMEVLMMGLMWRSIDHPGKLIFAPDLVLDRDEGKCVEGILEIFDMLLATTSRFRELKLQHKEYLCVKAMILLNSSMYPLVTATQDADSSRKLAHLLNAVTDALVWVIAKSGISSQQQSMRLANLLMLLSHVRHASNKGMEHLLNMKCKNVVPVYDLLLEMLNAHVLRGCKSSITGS

[2] = biological target: T1, ERα (Homo sapiens, UniProt P03372); test: Yeast two-hybrid system-based assay (ERα LBD/SRC1, α-galactosidase), agonist and antagonist mode; type: cell-based; details: for Agonistic activities (10 μM), ERα: DMSO = 1; for Inhibitive ratio % (10 μM), ERα: antagonist assay with 1 nM E2; for EC50: agonist testing
T1 sequence (P03372 301-553): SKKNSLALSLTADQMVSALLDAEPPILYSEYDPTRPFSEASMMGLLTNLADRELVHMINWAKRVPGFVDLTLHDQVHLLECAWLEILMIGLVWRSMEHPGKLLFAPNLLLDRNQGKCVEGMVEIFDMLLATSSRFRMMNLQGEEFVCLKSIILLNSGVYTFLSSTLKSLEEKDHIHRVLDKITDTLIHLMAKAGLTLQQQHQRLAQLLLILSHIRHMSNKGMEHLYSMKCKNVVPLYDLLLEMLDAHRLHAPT

[3] = biological target: T2, human recombinant DPP-IV (Homo sapiens, UniProt P27487); test: Dipeptidyl peptidase-IV inhibition assay (DPP-IV Drug Discovery Kit, fluorimetric); type: biochemical; details: for Inhibition Ratio (%) to DPP-IV: test concentration not given
T2 construct: purchased Biomol
T2 sequence (P27487 whole entry): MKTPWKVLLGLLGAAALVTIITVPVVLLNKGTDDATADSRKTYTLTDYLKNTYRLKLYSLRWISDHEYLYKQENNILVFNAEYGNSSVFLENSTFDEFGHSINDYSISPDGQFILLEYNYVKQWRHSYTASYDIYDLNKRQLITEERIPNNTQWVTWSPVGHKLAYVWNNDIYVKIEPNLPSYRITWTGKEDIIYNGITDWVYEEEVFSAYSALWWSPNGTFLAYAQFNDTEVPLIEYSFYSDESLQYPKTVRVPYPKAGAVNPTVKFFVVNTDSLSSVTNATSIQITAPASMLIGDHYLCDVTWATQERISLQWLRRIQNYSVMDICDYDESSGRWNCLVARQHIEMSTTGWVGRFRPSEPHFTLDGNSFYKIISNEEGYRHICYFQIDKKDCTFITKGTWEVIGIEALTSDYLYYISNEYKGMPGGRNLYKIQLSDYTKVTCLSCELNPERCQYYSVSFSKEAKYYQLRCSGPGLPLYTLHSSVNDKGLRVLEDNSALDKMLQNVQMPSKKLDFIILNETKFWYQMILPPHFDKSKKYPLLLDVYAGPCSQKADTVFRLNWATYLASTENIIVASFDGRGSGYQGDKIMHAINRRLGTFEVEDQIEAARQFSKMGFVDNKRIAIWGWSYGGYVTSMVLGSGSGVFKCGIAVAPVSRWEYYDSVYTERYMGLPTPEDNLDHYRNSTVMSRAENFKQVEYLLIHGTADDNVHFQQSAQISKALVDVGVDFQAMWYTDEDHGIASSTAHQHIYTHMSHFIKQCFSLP
Protocol: The inhibitory effects of compounds on human recombinant DPP-IV was determined using a DPP-IV Drug Discovery Kit (Biomol, USA) according to the manufacturer's instructions. The activity of DPP-IV was detected in a Synergy™ 2 Multi-Mode Microplate Reader (BioTek) at an excitation wavelength of 380 nm and an emission wavelength of 460 nm. […] IC50 values were determined using the GraphPad Prism 4 software with three independent determinations.
Table S4. The inhibitive activities profiles of nine approved drugs for dipeptidyl peptidase -IV
(DPP -IV ) enzyme inhibition assay. The inhibitory effects of compounds on human recombinant
DPP4 was determined using a DPP -IV Drug Discovery Kit (Biomol, USA) according to the
manufacturer ’s instructions. The DPP-IV Drug Discovery Kit is a complete assay system designed
to screen DPP 4 small molecule inhibitors. The fluorimetric assay is based on the cleavage of
7- a mino -4-methylcoumarin (AMC) moiety from peptide substrate (H-Gly-P ro-AMC), which
increases its fluorescence intensity at 460 nm. Compounds dilutions were prepared from stock in
DMSO and diluted with assay buffer for inhibition assay. A 40 μL solution of DPP -IV enzyme in
assa y buffer was incubated with 10μ L of various concentrations of test compoundsolutions for 10
min at room temperature. The reaction was initiated b y the addition of 50 μL of H-Gly-P ro- AMC
with a final concentration of 5 μM. The activity of DPP4 was detected in a Synergy™ 2
Multi-Mode Microplate Reader (BioTek) at an excitation wavelength of 380 nm and an emission
wavelength of 460 nm. […] IC 50 values were
determined by using the G raphP ad Prism 4 software with three independent determinations.

[4] = test system: ERα and ERβ; test: Yeast two-hybrid system-based assay, summary statements on ER (subtype not separated)
[5] = test system: MDA-MB-231 cells; test: MTT assay of cell proliferation; type: cell-based; details: Homo sapiens, MDA-MB-231 breast cancer cell line, 24 h, read-out: Antiproliferative activity IC50
Protocol: Cell proliferation was quantified by MTT assay. MDA-MB-231 cells were seeded at a density of 1.5×10^4 in a 96-well plate with DMEM/F12 supplemented with 10% charcoal stripped FBS without phenol red, and then incubated with the tested compounds in humidified air containing 5% CO2 at 37°C. After incubation for 24 h, 20 µL of 5 mg/mL MTT was added and incubated for another 4 h. Then the converted dye was dissolved in 100 µL of DMSO and the absorbance was measured at 570 nm.

Row | Molecule | Inhibitive Ratio% (10 μM), ERβ [1] | Agonistic activities (10 μM), ERβ ([1]; DMSO = 1) | Agonistic activities (10 μM), ERα [2] | further results
1 | 17-hydroxyprogesterone | 13.01% | 0.961 | – | –
2 | CCC1(c2ccc(N)cc2)CCC(=O)NC1=O (racemic) [Dl-aminoglutethimide] | – | – | 0.956 | –
3 | N[C@@H]1C[C@H]1c1ccccc1 (racemic) [Tranylcypromine] | 0% | 0.965 | 0.988 | Inhibitive ratio % (10 μM), ERα [2]: 4.3%
4 | CC(C)(C#N)c1cc(Cn2cncn2)cc(C(C)(C)C#N)c1 [Anastrozole] | – | 1.011 | – | –
5 | NC(=O)N1c2ccccc2C=Cc2ccccc21 [Carbamazepine] | – | – | – | Inhibition Ratio (%) to DPP-IV [3]: 19.67%
6 | CN/C(=N/CCSCc1nc[nH]c1C)NC#N [Cimetidine] | – | – | 1.018 | Inhibitive ratio % (10 μM), ERα [2]: 2.4%
7 | O=C(O)Cc1ccccc1Nc1c(Cl)cccc1Cl [Diclofenac] | – | 0.846 | – | IC50 [1]: 2320 nM; IC50 or EC50 values on ER [4]: less than 10 μM
8 | C[C@]12CC[C@@H]3c4ccc(O)cc4CC[C@H]3[C@@H]1CC[C@@H]2O [E2, estradiol] | – | – | – | Agonistic activities, ERβ, E2 control ([1]; 1 nM, DMSO = 1): 5.77
9 | CC(=O)OCC(CCn1cnc2cnc(N)nc21)COC(C)=O [Famciclovir] | 0% | 0.894 | – | –
10 | CC(C)C(=O)Nc1ccc([N+](=O)[O-])c(C(F)(F)F)c1 [Flutamide] | 2.83% | 0.949 | – | –
11 | Cc1ccc(C)c(OCCCC(C)(C)C(=O)O)c1 [Gemfibrozil] | – | – | – | Inhibition Ratio (%) to DPP-IV [3]: 17.35%
12 | CN(C)C(=O)C(CCN1CCC(O)(c2ccc(Cl)cc2)CC1)(c1ccccc1)c1ccccc1 [Loperamide] | 0% | 0.910 | 0.934 | Inhibitive ratio % (10 μM), ERα [2]: 6.18%
13 | CC[C@H](C)C(=O)O[C@H]1C[C@@H](C)C=C2C=C[C@H](C)[C@H](CC[C@@H]3C[C@@H](O)CC(=O)O3)[C@H]21 [Lovastatin] | – | – | – | Inhibition Ratio (%) to DPP-IV [3]: 9.49%
14 | COc1ccc2[nH]cc(CCNC(C)=O)c2c1 [Melatonin] | 0% | 0.914 | – | –
15 | CC(C)(O)c1ccccc1CC[C@@H](SCC1(CC(=O)O)CC1)c1cccc(/C=C/c2ccc3ccc(Cl)cc3n2)c1 [Montelukast] | – | – | – | Inhibition Ratio (%) to DPP-IV [3]: 49.7%; IC50 ([3]; three independent determinations): 9790 nM
16 | C=CCN1CC[C@]23c4c5ccc(O)c4O[C@H]2C(=O)CC[C@@]3(O)[C@H]1C5 [Naloxone HCl] | 0% | 1.051 | – | –
17 | Nc1nc2c(ncn2CCC(CO)CO)c(=O)[nH]1 [Penciclovir] | 0% | 0.947 | – | –
18 | CC[C@@H]1C(=O)OC[C@@H]1Cc1cncn1C.Cl [Pilocarpine HCl] | – | – | 1.008 | –
19 | CCc1ccc(CCOc2ccc(CC3SC(=O)NC3=O)cc2)nc1 (stereo not shown) [Pioglitazone] | – | – | – | Inhibition Ratio (%) to DPP-IV [3]: 18.63%
20 | CCC(C)(C)C(=O)O[C@H]1C[C@@H](C)C=C2C=C[C@H](C)[C@H](CC[C@@H]3C[C@@H](O)CC(=O)O3)[C@H]21 [Simvastatin] | – | – | – | IC50 [5]: 1490 nM
21 | NS(=O)(=O)Cc1noc2ccccc12 [Zonisamide] | – | 1.029 | – | –

Further lines, with some results ahead:

Row | Inhibitive Ratio% (10 μM), ERβ [1] | Agonistic activities (10 μM), ERβ ([1]; DMSO = 1) | Agonistic activities (10 μM), ERα [2] | Molecule | further results
22 | 3.11% | 0.981 | – | CN(C)CCCN1c2ccccc2Sc2ccc(Cl)cc21 [Chlorpromazine HCl] | –
23 | 51.99% | 1.890 | 4.132 | CCC(C)n1ncn(-c2ccc(N3CCN(c4ccc(OCC5COC(Cn6cncn6)(c6ccc(Cl)cc6Cl)O5)cc4)CC3)cc2)c1=O (stereo not shown) [Itraconazole] | IC50 ([1]; antagonist assay): 280 nM; IC50 or EC50 values on ER [4]: less than 1 μM; IC50 or EC50 values on ER ([4]; listed as itraconazole): less than 10 μM; Inhibitive ratio % (10 μM), ERα [2]: 8.19%; EC50 ([2]; REC50 on ERα (concentration showing 50% of the maximum agonistic activity of E2), relative to E2): 320 nM; EC50 ([2]; read-out: EC50 on ERα (agonistic activity)): 200 nM
24 | – | 0.853 | – | CC(=O)N1CCN(c2ccc(OCC3COC(Cn4ccnc4)(c4ccc(Cl)cc4Cl)O3)cc2)CC1 (stereo not shown) [Ketoconazole] | IC50 [1]: 790 nM; IC50 [5]: 8950 nM; IC50 or EC50 values on ER [4]: less than 1 μM; IC50 or EC50 values on ER ([4]; listed as ketoconazole): less than 10 μM
25 | – | – | 0.995 | CS(=O)(=O)CCNCc1ccc(-c2ccc3ncnc(Nc4ccc(OCc5cccc(F)c5)c(Cl)c4)c3c2)o1 [Lapatinib] | Inhibitive ratio % (10 μM), ERα [2]: 14.01%; Inhibition Ratio (%) to DPP-IV [3]: 39.64%
26 | 0% | 0.846 | – | N#Cc1ccc(C(c2ccc(C#N)cc2)n2cncn2)cc1 [Letrozole] | –
27 | 27.16% | 1.080 | 1.463 | CC#C[C@]1(O)CC[C@H]2[C@@H]3CCC4=CC(=O)CCC4=C3[C@@H](c3ccc(N(C)C)cc3)C[C@@]21C [Mifepristone] | Inhibitive ratio % (10 μM), ERα [2]: 0%
28 | – | – | 0.962 | COC(=O)C1=C(C)NC(C)=C(C(=O)OCCN(C)Cc2ccccc2)C1c1cccc([N+](=O)[O-])c1 (stereo not shown) [Nicardipine] | Inhibitive ratio % (10 μM), ERα [2]: 15.21%; Inhibition Ratio (%) to DPP-IV [3]: 21.24%
29 | – | – | 0.955 | O=c1[nH]c2ccccc2n1C1CCN(CCCC(c2ccc(F)cc2)c2ccc(F)cc2)CC1 [Pimozide] | Inhibitive ratio % (10 μM), ERα [2]: 4.58%
